# In patent US20080187568A1, “Polymerization with precipitation of proteins for elution in physiological solution” (priority 2007, published 2008):
# Like-named read-outs stand apart in the source and are kept apart here.
# Assays:
# [1] = Solubility / precipitation of the agent in hydrogel precursor solutions
# Protocol: (§1) 0.68 grams 4 arm-n-hydroxysuccinimide ester of polyethylene glycol and carboxymethylene-butyric acid, average molecular weight 10000 Daltons (Shearwater 4 arm CM-HBA-NS-10K) is dissolved in 2.82 g 0.01M phosphate buffer at pH 4.0 and is sterile filtered. Solution B is prepared by dissolving 0.025 grams trilysine and 10 mg bovine fibrinogen (purchased from Sigma Chemicals) in 3.47 g 0.1M borate buffer at pH 9.5 with 0.1 mg/mL methylene blue for visualization. 1 ml of solution A and B are mixed to promote condensation polymerization. Trilysine and PEG-NHS ester react to form a crosslinked hydrogel.
# (§2) 1.41 grams 4 arm-n-hydroxysuccinimide ester of polyethylene glycol carboxymethylene-butyric acid, average molecular weight 10000 Daltons (Shearwater 4 arm CM-HBA-NS-10K) and 100 mg of Bone Morphogenetic Protein 2 (BMP-2 protein, recombinant, Sigma catalog B3555) are mixed in a solid state as lyophilized powders and are dissolved/suspended in 2.96 ml 0.1 M HCl just prior to use. Solution B is prepared by dissolving 0.06 grams dilysine (purchased from Sigma Chemicals) in 7.2 g 0.1M borate buffer at pH 9.5 with 0.1 mg/mL methylene blue for visualization. 1 ml of solution A and B are mixed to promote condensation polymerization between dilysine and PEG-NHS ester. Dilysine and PEG-NHS ester react to form a crosslinked hydrogel. HCl is neutralized by borate buffer to form a neutral/basic solution medium.
# (§3) 1.37 grams 4 arm-n-hydroxysuccinimide ester of polyethylene glycol carboxymethylene-butyric acid, average molecular weight 10000 Daltons (Shearwater 4 arm CM-HBA-NS-10K) is dissolved in 5.64 g 0.01M phosphate buffer at pH 4.0 and is sterile filtered. Solution B is prepared by dissolving 0.050 grams trilysine and 100 mg paclitaxel in 6.94 g 0.1M borate buffer at pH 9.5 with 0.5 mg/mL methylene blue for visualization. […] Trilysine and PEG-NHS ester react to form a crosslinked hydrogel.
# [2] = cited from earlier work
# [3] = pH 9.5
# Protocol: as §1, §2, §3
Compound,solubility at pH 4 [2] [g/L],solubility at pH 7 [2] [g/L],solubility at pH 10 [2] [g/L],also measured
Fibrinogen,,,,precipitation on mixing with PEG-NHS ester solution ([1]; fibrinogen in trilysine solution mixed with PEG-NHS ester solution): precipitated
CC(C)(C)NC[C@H](O)COc1nsnc1N1CCOCC1 [Timolol],1000,160,2.4,
COc1c(N2C[C@@H]3CCCN[C@@H]3C2)c(F)cc2c(=O)c(C(=O)O)cn(C3CC3)c12 [Moxifloxacin],11,0.13,0.14,
"CO[C@H]1/C=C/O[C@@]2(C)Oc3c(C)c(O)c4c(O)c(c(/C=N/N5CCN(C)CC5)c(O)c4c3C2=O)NC(=O)/C(C)=C\C=C\[C@H](C)[C@H](O)[C@@H](C)[C@@H](O)[C@@H](C)[C@H](OC(C)=O)[C@@H]1C [Rifampicin, rifampicin]",1.6,0.16,1000,
CC(=O)O[C@H]1C(=O)[C@@]2(C)[C@H]([C@H](OC(=O)c3ccccc3)[C@]3(O)C[C@H](OC(=O)[C@H](O)[C@@H](NC(=O)c4ccccc4)c4ccccc4)C(C)=C1C3(C)C)[C@]1(OC(C)=O)CO[C@@H]1C[C@@H]2O [paclitaxel],,,,solubility in borate buffer ([1]; 0.1M borate buffer at pH 9.5 (solution B)): insoluble
"Cc1c(C)c2c(c(C)c1O)CC[C@@](C)(CCC[C@H](C)CCC[C@H](C)CCCC(C)C)O2 [vitamin E, alpha-Tocopherol]",,,,solubility in borate buffer [3]: insoluble
